Assay results published in patent publication US20140090094A1, “MODULATORS OF SLC22A7” (BAYER INTELLECTUAL PROPERTY GmbH, priority 2011, published 2014).

Assays:
[1] = target: T1, OAT2r (Rattus norvegicus, UniProt Q5RLM2); assay: 1 min uptake into 293 cells expressing OAT2 from rat; format: cell-based; conditions: 1 min uptake, 0.1 μmol/l radiotracer or 10 μmol/l unlabeled compound;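 note: uptake at 37 °C, read by liquid scintillation counting or LC-ESI-MS/MS, carrier-mediated part as induced-minus-uninduced expression difference corrected for baseline content, protein by BCA assay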
T1 construct: expressed in transfected cells
T1 sequence (Q5RLM2 1-535): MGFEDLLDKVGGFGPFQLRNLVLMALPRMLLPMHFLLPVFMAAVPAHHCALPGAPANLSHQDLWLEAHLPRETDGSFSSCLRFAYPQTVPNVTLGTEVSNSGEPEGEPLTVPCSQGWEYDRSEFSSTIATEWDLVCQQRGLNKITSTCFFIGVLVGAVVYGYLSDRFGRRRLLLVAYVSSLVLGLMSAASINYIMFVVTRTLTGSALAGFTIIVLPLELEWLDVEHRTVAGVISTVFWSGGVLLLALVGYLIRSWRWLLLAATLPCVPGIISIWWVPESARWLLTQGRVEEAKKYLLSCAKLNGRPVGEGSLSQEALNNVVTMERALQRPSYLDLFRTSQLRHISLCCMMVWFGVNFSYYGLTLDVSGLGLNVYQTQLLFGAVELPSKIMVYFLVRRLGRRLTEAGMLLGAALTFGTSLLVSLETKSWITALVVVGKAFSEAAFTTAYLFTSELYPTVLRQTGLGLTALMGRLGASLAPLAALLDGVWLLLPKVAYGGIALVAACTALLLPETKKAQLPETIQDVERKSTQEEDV
Description: (§1) Cells were used for uptake experiments at a confluence of at least 70%. Uptake was measured at 37° C. […] After preincubation for at least 20 minutes in 4 ml of uptake buffer, the buffer was replaced with 2 ml of substrate in uptake buffer. The total substrate concentration if not indicated otherwise was 0.1 μmol/l for radiotracer assays and 10 μmol/l for unlabeled compounds. Incubation was stopped after 1 min by rinsing the cells four times each with 4 ml ice-cold uptake buffer. Radioactivity was determined, after cell lysis with 0.1% v/v Triton X-100 in 5 mmol/l TRIS-HCl pH 7.4, by liquid scintillation counting. For LCelectrospray ionization-MS/MS analysis, cells were lysed with methanol and stored at −20° C.
(§2) After centrifugation (1 min, 16000×g, 20° C.) of thawed lysates, 100 μl of the supernatant was mixed with either 10 μl unlabeled MPP+ iodide (0.5 ng/μl) or biphenyl-4-carboxylic acid (Sigma-Aldrich) as internal standard. […] Atmospheric pressure ionization with positive or negative electrospray was used. For quantification (scan time 150 ms), the optimal collision energy for argon-induced fragmentation in the second quadrupole was determined for each analyte. […] Linear calibration curves were constructed from at least six standards which were prepared using control cell lysates as solvent. Sample analyte content was calculated from the analyte response ratio and the slope of the calibration curve, obtained by linear regression. With LC-MS quantitation, solute content of cell lysates was determined for 4 conditions (paired dishes, incubation time 1 min): a) transporter expression on, uptake buffer; b) expression off, uptake buffer; c) expression on, substrate in uptake buffer; d) expression off, substrate in uptake buffer. Acute uptake mediated by heterologously expressed carrier was then calculated as (c−a)−(d−b). This approach takes into account endogenous solute content and non-specific uptake. Protein was measured by the BCA assay (Pierce) with bovine serum albumin as standard. The protein content of MS samples was estimated from 3 matched cell dishes.

[2] = target: T1, OAT2r; assay: 24 h accumulation in lysates of OAT2r-expressing versus control cells (LC-MS/MS); format: cell-based; conditions: for increase in OAT2r cell lysates versus control cells (factor f): 24 h incubation, compound at 100 μmol/l
Description: A substrate search by LC-MS difference shading was performed with 293 cells stably transfected to express OAT2 from rat. […] To verify that trigonelline is directly transported by OAT2 and not just increased indirectly, initial rates of uptake (1 min, 37° C.) of trigonelline (10 μmol/l) were determined by LC-MS/MS.
With trigonelline as substrate lead, compounds wholly or partly related in structure were analyzed for transport by OAT2 from rat.
After centrifugation (1 min, 16000×g, 20° C.) of thawed lysates, 100 μl of the supernatant was mixed with either 10 μl unlabeled MPP+ iodide (0.5 ng/μl) or biphenyl-4-carboxylic acid (Sigma-Aldrich) as internal standard. Of this mixture, […] were analyzed by LCMS/MS on a triple quadrupole mass spectrometer (4000 Q TRAP, Applied Biosystems, Darmstadt, Germany). […] Atmospheric pressure ionization with positive or negative electrospray was used. For quantification (scan time 150 ms), the optimal collision energy for argon-induced fragmentation in the second quadrupole was determined for each analyte. […] Linear calibration curves were constructed from at least six standards which were prepared using control cell lysates as solvent. Sample analyte content was calculated from the analyte response ratio and the slope of the calibration curve, obtained by linear regression. With LC-MS quantitation, solute content of cell lysates was determined for 4 conditions ([…]): a) transporter expression on, uptake buffer; b) expression off, uptake buffer; c) expression on, substrate in uptake buffer; d) expression off, substrate in uptake buffer. Acute uptake mediated by heterologously expressed carrier was then calculated as (c−a)−(d−b). This approach takes into account endogenous solute content and non-specific uptake. Protein was measured by the BCA assay (Pierce) with bovine serum albumin as standard. The protein content of MS samples was estimated from 3 matched cell dishes.

[3] = target: T2, OAT2h (Homo sapiens, UniProt Q9Y694); assay: 1 min uptake into 293 cells expressing OAT2 from human; format: cell-based; conditions: radiotracer
T2 construct: expressed in transfected cells; host or cells: 293 cells (HEK-293), pEBTetD/OAT2h, doxycycline-inducible
T2 sequence (Q9Y694 1-546 isoform Q9Y694-2): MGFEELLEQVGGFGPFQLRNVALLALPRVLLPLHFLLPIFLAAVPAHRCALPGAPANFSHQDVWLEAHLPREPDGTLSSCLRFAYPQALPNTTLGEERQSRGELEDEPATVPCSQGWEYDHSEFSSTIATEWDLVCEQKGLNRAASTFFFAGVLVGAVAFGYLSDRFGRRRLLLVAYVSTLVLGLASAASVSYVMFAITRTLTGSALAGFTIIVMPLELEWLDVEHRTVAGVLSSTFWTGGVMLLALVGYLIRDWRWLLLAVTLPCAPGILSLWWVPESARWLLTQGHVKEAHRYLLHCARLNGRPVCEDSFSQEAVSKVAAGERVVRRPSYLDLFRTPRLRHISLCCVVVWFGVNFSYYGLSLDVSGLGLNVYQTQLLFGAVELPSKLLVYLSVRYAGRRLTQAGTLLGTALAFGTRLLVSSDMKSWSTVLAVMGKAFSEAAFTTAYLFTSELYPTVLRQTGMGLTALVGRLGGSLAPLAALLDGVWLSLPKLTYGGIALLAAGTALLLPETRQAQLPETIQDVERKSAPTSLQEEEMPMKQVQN
Description: as §1, §2

[4] = target: T1, OAT2r; assay: trans-stimulation of efflux of 3H-orotic acid via OAT2r; format: cell-based; conditions: 1 mmol/l compound in uptake buffer, 1 min, preloaded cells
[5] = substrate: O=C(O)c1cc(=O)[nH]c(=O)[nH]1; assay: cells, lysate or membranes; conditions: other: saturation of OAT2r-mediated uptake, 1 min

C[n+]1cccc(C(N)=O)c1 [1-methylnicotinamide]
transport by OAT2r (in words) [1]: no transport

Nc1ccccc1C(=O)O [2-aminobenzoic acid]
transport by OAT2r (in words) [1]: no transport | increase in OAT2r cell lysates versus control cells (factor f) [2]: 1.1

CCN(CC)CCC(=O)O [3-(diethylamino)propionic acid]
increase in OAT2r cell lysates versus control cells (factor f) [2]: 1.1

Nc1cccc(C(=O)O)c1 [3-aminobenzoic acid]
transport by OAT2r (in words) [1]: no transport | increase in OAT2r cell lysates versus control cells (factor f) [2]: 1.4

NC(=O)CC[C@H](N)C(=O)O [3H-glutamine, glutamine]
uptake by OAT2h (in words) [3]: no uptake

Nc1ccc(C(=O)O)cc1 [4-aminobenzoic acid]
transport by OAT2r (in words) [1]: no transport | increase in OAT2r cell lysates versus control cells (factor f) [2]: 1.1

NCC(=O)CCC(=O)O [5-aminolevulinic acid]
transport by OAT2r (in words) [1]: no transport

O=C(O)c1[nH]c(=O)[nH]c(=O)c1F [5-fluoroorotic acid]
transport by OAT2r (in words) [1]: transported efficiently

O=C1CC[C@@H](C(=O)O)N1 [5-oxoproline]
transport by OAT2r (in words) [1]: no transport

C[N+](C)(C)C[C@H](O)CC(=O)[O-] [L-carnitine]
increase in OAT2r cell lysates versus control cells (factor f) [2]: 1.0

O=C1C[C@@H](C(=O)O)NC(=O)N1 [L-dihydroorotic acid]
transport by OAT2r (in words) [1]: no transport

O=C(O)[C@@H]1CCCN1 [L-proline]
transport by OAT2r (in words) [1]: no transport

O=C(O)c1cccnc1C(=O)O [Quinolinic acid]
increase in OAT2r cell lysates versus control cells (factor f) [2]: 2.7 | difference in lysate content between OAT2r and control cells (in words) ([2]; up to 1 h incubation time): virtually no difference

O=C1CC(=O)NC(=O)N1 [barbituric acid]
transport by OAT2r (in words) [1]: no transport

CN(CC(=O)O)C(=N)N [creatine]
transport by OAT2r (in words) [1]: no transport

CC1=NCC[C@@H](C(=O)O)N1 [ectoine]
increase in OAT2r cell lysates versus control cells (factor f) [2]: 1.2

NCC1(CC(=O)O)CCCCC1 [gabapentin]
increase in OAT2r cell lysates versus control cells (factor f) [2]: 1.2

C[N+](C)(C)CC(=O)[O-] [glycine betaine]
increase in OAT2r cell lysates versus control cells (factor f) [2]: 1.0

N=C(N)NCC(=O)O [guanidinoacetic acid]
transport by OAT2r (in words) [1]: no transport

O=C(O)CC1NC(=O)NC1=O (stereo not shown) [hydantoin-5-acetic acid]
transport by OAT2r (in words) [1]: no transport

O=C(O)c1c[nH]c(=O)[nH]c1=O [isoorotic acid]
transport by OAT2r (in words) [1]: transported efficiently

O=C(O)c1cc(=O)c2ccccc2[nH]1 [kynurenic acid]
transport by OAT2r (in words) [1]: no transport

CC(O)C(=O)O (stereo not shown) [lactate]
trans-stimulation of efflux of 3H-orotic acid (in words) [4]: rejects

O=C(O)CC(O)C(=O)O (stereo not shown) [malate]
trans-stimulation of efflux of 3H-orotic acid (in words) [4]: rejects

NC(=O)c1cccnc1 [nicotinamide]
transport by OAT2r (in words) [1]: no transport | increase in OAT2r cell lysates versus control cells (factor f) [2]: no significant increase

O=C(O)c1ccc[n+]([C@@H]2O[C@H](COP(=O)(O)O)[C@@H](O)[C@H]2O)c1 [nicotinic acid mononucleotide]
transport by OAT2r (in words) [1]: no transport

O=C([O-])c1ccc[n+]([C@@H]2O[C@H](CO)[C@@H](O)[C@H]2O)c1 [nicotinic acid riboside]
transport by OAT2r (in words) [1]: transported slightly more efficiently than trigonelline

O=C(O)c1cccnc1 [nicotinic acid]
transport by OAT2r (in words) [1]: no transport | increase in OAT2r cell lysates versus control cells (factor f) [2]: no significant increase

Cc1cc2nc3c(=O)[nH]c(=O)nc-3n(C[C@H](O)[C@H](O)[C@H](O)CO)c2cc1C [riboflavin]
transport by OAT2r (in words) [1]: no transport | increase in OAT2r cell lysates versus control cells (factor f) [2]: 1.2

C[N+]1(C)CCC[C@H]1C(=O)[O-] [stachydrine]
transport by OAT2r (in words) [1]: no transport | increase in OAT2r cell lysates versus control cells (factor f) [2]: 1.2

Cc1ncc(C[n+]2csc(CCO)c2C)c(N)n1 [thiamine]
transport by OAT2r (in words) [1]: no transport

B1: OAT2r (Rattus norvegicus) (protein)
chain: MGFEDLLDKVGGFGPFQLRNLVLMALPRMLLPMHFLLPVFMAAVPAHHCALPGAPANLSHQDLWLEAHLPRETDGSFSSCLRFAYPQTVPNVTLGTEVSNSGEPEGEPLTVPCSQGWEYDRSEFSSTIATEWDLVCQQRGLNKITSTCFFIGVLVGAVVYGYLSDRFGRRRLLLVAYVSSLVLGLMSAASINYIMFVVTRTLTGSALAGFTIIVLPLELEWLDVEHRTVAGVISTVFWSGGVLLLALVGYLIRSWRWLLLAATLPCVPGIISIWWVPESARWLLTQGRVEEAKKYLLSCAKLNGRPVGEGSLSQEALNNVVTMERALQRPSYLDLFRTSQLRHISLCCMMVWFGVNFSYYGLTLDVSGLGLNVYQTQLLFGAVELPSKIMVYFLVRRLGRRLTEAGMLLGAALTFGTSLLVSLETKSWITALVVVGKAFSEAAFTTAYLFTSELYPTVLRQTGLGLTALMGRLGASLAPLAALLDGVWLLLPKVAYGGIALVAACTALLLPETKKAQLPETIQDVERKSTQEEDV
Km [5]: 200 (95% confidence interval: 160-240) μmol/l
